US6573041B2, “Neuronal cell model and methods of use thereof” (priority 2000, dated 2003)

Tested on: HSV-2 strain 333 quiescently infected ND-PC12 (QIF-PC12) cell cultures
Experiment: Induction of HSV-2 from QIF-PC12 cell cultures; virus production by direct plaque assay of supernatants on Vero cells
Format: cell-based
Details: for cultures activating virus in response to forskolin: Vero cocultivation day 12 p.i.
Description: For morphologic differentiation, PC12 cells were maintained in RPMI 1640 supplemented 0.1% bovine serum albumin, fraction V (BSA) and 50 ng/ml of 2.5S mouse nerve growth nerve factor (NGF) (Becton Dickinson) (maintenance media) throughout the studies, unless indicated, beginning on the day of plating. PC12 were plated, following two rinses with RPMI 1640 containing 0.1% BSA and dissociation by passage through a 22-gauge needle, in 12-well tissue culture dishes (Bector Dickinson Labware, Franklin Lakes, N.J., USA) coated with rat tail collagen type 1 (Bector Dickinson) at 1.1×10^5 cells/well in maintenance media. Collagen was applied as recommended by the supplier. Following 4 days of differentiation in maintenance media, cultures were maintained in RPMI 1640 supplemented with 10% horse serum (heat-inactivated) and 5% FBS, and 50 ng/ml NGF for 2 days. The following day cultures received maintenance media supplemented with 100 μM acycloguanosine (ACV) when indicated, purchased from Sigma (St. Louis, Mo., USA). Morphologic differentiation was confirmed by microscopic visualization of dendritic processes. Media was changed every 2 to 3 days unless indicated.
ND-PC12 cells were infected in a volume of 0.4 ml/well in 12-well plates without agitation at the indicated multiplicity of infection (MOI) overnight at 37° C. When used, ACV was maintained in the medium from 1 day prior to infection 8 days post-infection (p.i.). After ACV withdrawal, a quiescent state (i.e., free of detectable infectious virus in culture supernatants) was maintained for at least 7 days prior to induction. At the indicated times, Vero cells were trypsinized, washed twice with RPMI and introduced into the QIF-PC12 cell cultures at a ratio of 1:1 in maintenance media.
HSV QIF-PC12 cells, that were free of detectable infectious virus, were subjected to heat stress (43° C. for 3 h in an incubator), or maintenance media supplemented with or without 50 μM forskolin (Sigma) as previously described (Danaher et al, 1999a,b). Virus production was determined using 25% volume of supernatants from infected PC12 cultures in a direct plaque assay (DPA) on monolayers of Vero cells as previously described (Miller and Smith, 1991). Cultures were subsequently replenished with fresh maintenance media.
Based on these findings, forskolin and HS induced HSV-2 reactivation from QIF-PC12 cell cultures that were cocultivated with Vero cells was analyzed in more detail. QIF-PC12 cell cultures were established with strain 333 at MOI of 10 as described in the Materials and methods using transient ACV treatment. Cultures were cocultivated with Vero cells at a ratio of 1:1 three days before induction with forskolin or HS (day 15 p.i.). Virus production was monitored from day 10 through 23 p.i. Prior to induction, HSV-2 was detected infrequently (2.8%; 1/36) in cocultivated cultures. The 35 cultures that were not shedding virus were used in induction assays. Following induction treatment (FIG. 1), virus was detected in 90 to 100% of HS and forskolin induced cocultivated cultures, and 8.3% (1/12) of mock-induced cocultivated cultures.
To assess this, QIF-PC12 cell cultures were established with HSV-2 as described above. Cultures were cocultivated with Vero cells at a ratio of 1:1 within 10 days of AC withdrawal. Induction was performed with forskolin on day 30 p.i. Cultures were monitored for virus production using culture supernatants. Over the 3 week period between ACV withdrawal and induction, 71% (17/24) of the HSV-2 infected culture maintained quiescence. HSV-2 was produced from 100% (8/8) of forskolin induced cultures and 0% (0/9) of mock induced cultures by 8 days post-induction (data not shown).
Next, it was determined whether the efficiency of HSV-2 activation from quiescence was MOI-dependent. QIF-PC12 cell cultures were established with HSV-2 strain 333 at MOIs of 3 and 30 and cocultivated with Vero cells at a ratio of 1:1 on day 12 p.i. as above. […]

In the case of `C=C[C@@]1(C)CC(=O)[C@]2(O)[C@@]3(C)[C@@H](O)CCC(C)(C)[C@@H]3[C@H](O)[C@H](OC(C)=O)[C@@]2(C)O1` [forskolin], the “cultures activating virus in response to forskolin” value (50 μM forskolin day 15 p.i., MOI of 3, established with ACV, 9/11 by day 7) is reported as 82%, the “cultures activating virus in response to forskolin” value (50 μM forskolin day 15 p.i., MOI of 30, established with ACV, 12/12 by day 6) is reported as 100% and the “cultures producing HSV-2 after forskolin induction” value (established without ACV, MOI of 3, 50 μM forskolin day 15 p.i., by day 6 post-induction, 10/11 cultures) is reported as 91%. For the same molecule, the “cultures from which virus was recovered after forskolin induction” value (established without ACV, MOI of 3, previously mock induced non-productive cultures, forskolin induced on day 30 p.i., 4/4 cultures) was 100%, the “forskolin induced reactivation (cultures)” value (established without ACV, MOI of 30, 50 μM forskolin day 15 p.i., 9/10 cultures) was 90% and the “cultures producing HSV-2 after forskolin induction” value (forskolin on day 30 p.i., established with ACV, Vero cocultivation, by 8 days post-induction, 8/8 cultures) was 100%.
